What is called inhibition is the percentage by which the read-out fell short of the control. The term IC50 denotes the concentration that gives 50% inhibition.

For six molecules, inhibition and IC50 results are on record in ChEMBL document CHEMBL3351485 (ACS Med Chem Lett, 2014).

SMILES strings stand for the structures. Calls of active or inactive are those of the source. The rule behind the calls is not given here.

Test [1] has as its target T1, Sodium- and chloride-dependent GABA transporter 2 (Homo sapiens) (UniProt Q9NSD5).
T1 sequence (whole entry): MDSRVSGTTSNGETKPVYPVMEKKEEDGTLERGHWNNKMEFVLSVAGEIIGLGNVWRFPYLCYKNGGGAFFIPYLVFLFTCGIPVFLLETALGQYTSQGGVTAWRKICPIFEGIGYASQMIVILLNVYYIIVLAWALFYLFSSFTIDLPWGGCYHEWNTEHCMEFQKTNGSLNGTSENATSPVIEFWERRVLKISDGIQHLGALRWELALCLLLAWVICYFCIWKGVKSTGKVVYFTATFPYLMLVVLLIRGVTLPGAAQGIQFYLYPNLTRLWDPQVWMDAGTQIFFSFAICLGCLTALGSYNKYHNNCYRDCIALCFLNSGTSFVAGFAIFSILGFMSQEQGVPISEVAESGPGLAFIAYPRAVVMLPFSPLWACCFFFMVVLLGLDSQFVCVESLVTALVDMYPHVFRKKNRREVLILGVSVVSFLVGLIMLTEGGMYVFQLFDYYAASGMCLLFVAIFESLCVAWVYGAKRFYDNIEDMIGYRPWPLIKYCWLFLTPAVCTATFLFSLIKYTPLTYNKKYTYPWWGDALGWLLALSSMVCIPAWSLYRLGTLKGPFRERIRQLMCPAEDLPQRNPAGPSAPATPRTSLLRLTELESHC
Nature of the test: Inhibition of human GAT2 transfected in CHO cells assessed as [3H]GABA uptake at 100 uM after 20 mins by liquid scintillation counting analysis. Format: cell-based.

Test [2] concerns the target T2, Sodium- and chloride-dependent GABA transporter 2 (Homo sapiens, UniProt Q9NSD5).
T2 sequence (Q9NSD5 whole entry): T1 sequence (whole entry)
Nature of the test: Inhibition of human GAT2 transfected in CHO cells assessed as [3H]GABA uptake after 20 mins by liquid scintillation counting analysis. Type of test: cell-based.

Test [3] deals with T3, Sodium- and chloride-dependent GABA transporter 1 (Homo sapiens, UniProt P30531). The test is described as follows: Inhibition of human GAT1 transfected in CHO cells assessed as [3H]GABA uptake at 100 uM after 20 mins by liquid scintillation counting analysis. Type of test: cell-based.
Target sequence in this assay (P30531 whole entry, looked up): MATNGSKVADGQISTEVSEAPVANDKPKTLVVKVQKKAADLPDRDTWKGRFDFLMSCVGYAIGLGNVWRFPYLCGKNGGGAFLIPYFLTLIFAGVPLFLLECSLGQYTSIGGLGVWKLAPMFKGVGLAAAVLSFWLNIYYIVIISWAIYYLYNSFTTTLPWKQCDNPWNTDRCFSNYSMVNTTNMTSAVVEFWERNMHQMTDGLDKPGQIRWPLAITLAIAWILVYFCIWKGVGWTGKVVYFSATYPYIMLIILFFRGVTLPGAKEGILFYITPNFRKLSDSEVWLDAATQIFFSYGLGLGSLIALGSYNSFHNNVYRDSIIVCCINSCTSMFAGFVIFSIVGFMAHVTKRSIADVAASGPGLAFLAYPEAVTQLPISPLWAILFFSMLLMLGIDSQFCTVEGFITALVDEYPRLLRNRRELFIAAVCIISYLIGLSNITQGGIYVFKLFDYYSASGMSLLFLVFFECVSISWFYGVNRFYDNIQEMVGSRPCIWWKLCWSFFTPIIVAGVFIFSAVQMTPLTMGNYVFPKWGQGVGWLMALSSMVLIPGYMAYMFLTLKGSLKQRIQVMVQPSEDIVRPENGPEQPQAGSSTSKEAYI
Test [4] has as its target T3, Sodium- and chloride-dependent GABA transporter 1. The test is described as follows: Inhibition of human GAT1 transfected in CHO cells assessed as [3H]GABA uptake after 20 mins by liquid scintillation counting analysis. Type of test: cell-based.
Target sequence in this assay (P30531 whole entry): as the sequence (P30531 whole entry, looked up) above
The target in test [5] is T4, Sodium- and chloride-dependent betaine transporter (Homo sapiens) (UniProt P48065).
T4 sequence (whole entry): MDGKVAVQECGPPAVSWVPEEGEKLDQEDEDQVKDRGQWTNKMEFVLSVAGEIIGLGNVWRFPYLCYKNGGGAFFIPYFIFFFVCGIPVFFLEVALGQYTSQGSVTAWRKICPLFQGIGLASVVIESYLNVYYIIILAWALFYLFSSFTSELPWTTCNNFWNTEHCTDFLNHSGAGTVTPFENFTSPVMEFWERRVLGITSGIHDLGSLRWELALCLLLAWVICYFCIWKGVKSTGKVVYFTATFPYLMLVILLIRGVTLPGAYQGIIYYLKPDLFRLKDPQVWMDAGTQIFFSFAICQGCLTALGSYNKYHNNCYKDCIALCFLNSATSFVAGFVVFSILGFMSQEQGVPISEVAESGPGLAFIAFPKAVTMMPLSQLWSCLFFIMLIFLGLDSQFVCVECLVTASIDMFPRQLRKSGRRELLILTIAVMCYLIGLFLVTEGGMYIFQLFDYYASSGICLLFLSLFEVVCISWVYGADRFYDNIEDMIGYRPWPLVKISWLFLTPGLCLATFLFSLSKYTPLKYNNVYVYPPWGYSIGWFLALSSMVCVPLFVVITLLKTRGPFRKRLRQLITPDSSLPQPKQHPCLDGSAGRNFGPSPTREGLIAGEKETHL
Nature of the test: Inhibition of human BGT1 transfected in CHO cells assessed as [3H]GABA uptake at 100 uM after 20 mins by liquid scintillation counting analysis. Format: cell-based.

The target in test [6] is T5, Sodium- and chloride-dependent GABA transporter 3 (Homo sapiens) (UniProt P48066).
T5 sequence (whole entry): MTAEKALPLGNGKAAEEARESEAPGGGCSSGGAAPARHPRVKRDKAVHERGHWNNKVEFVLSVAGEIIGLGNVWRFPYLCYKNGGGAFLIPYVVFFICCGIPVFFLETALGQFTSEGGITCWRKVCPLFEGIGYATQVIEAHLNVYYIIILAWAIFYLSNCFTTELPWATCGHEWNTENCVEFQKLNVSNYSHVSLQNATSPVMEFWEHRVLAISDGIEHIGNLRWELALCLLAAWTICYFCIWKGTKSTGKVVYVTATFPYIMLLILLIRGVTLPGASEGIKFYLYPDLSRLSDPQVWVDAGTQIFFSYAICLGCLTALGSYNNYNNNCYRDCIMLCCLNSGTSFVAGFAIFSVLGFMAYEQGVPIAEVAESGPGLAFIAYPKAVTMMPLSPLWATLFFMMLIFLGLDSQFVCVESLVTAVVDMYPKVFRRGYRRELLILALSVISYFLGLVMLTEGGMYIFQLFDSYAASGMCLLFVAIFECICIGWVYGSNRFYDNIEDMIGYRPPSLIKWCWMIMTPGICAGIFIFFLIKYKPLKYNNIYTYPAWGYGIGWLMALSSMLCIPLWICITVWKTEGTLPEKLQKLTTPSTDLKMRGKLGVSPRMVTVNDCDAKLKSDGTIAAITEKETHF
To be noted: CHO, 100 uM.
Description: Inhibition of human GAT3 transfected in CHO cells assessed as [3H]GABA uptake at 100 uM after 20 mins by liquid scintillation counting analysis

The target in test [7] is T6, Sodium- and chloride-dependent GABA transporter 3 (Homo sapiens, UniProt P48066).
T6 sequence (P48066 whole entry): T5 sequence (whole entry)
The test is described as follows: Inhibition of human GAT3 transfected in CHO cells assessed as [3H]GABA uptake after 20 mins by liquid scintillation counting analysis. Format: cell-based.

The target in test [8] is T7, Sodium- and chloride-dependent betaine transporter (Homo sapiens, UniProt P48065).
T7 sequence (P48065 whole entry): T4 sequence (whole entry)
The test is described as follows: Inhibition of human BGT1 transfected in CHO cells assessed as [3H]GABA uptake after 20 mins by liquid scintillation counting analysis. Type of test: cell-based.

`N[C@@]12CC[C@H](C(=O)O)[C@@H]1C2`: the inhibition in test [1] was found to be 29%; in test [3] it was 12.2%; in test [5], 97.6%; in test [6] it was 48.2%. For the same molecule, the IC50 is greater than 100 µM in test [2], greater than 100 µM in test [4], 76.3 µM in test [7] and 0.59 µM in test [8].
Consider `COc1ccc(C(OCCN2CCC[C@H](C(=O)O)C2)(c2ccc(OC)cc2)c2ccc(OC)cc2)cc1`, for which the IC50 in test [4] is greater than 100 µM.
As for `N[C@H]1C[C@H]1CC(=O)O`, the IC50 in test [2] is 36.9 µM; in test [4], greater than 100 µM; in test [7] it was 13.9 µM; in test [8] it was 5.48 µM. Besides, the inhibition entry in test [5] and in test [6] was “Active” in each case.
As to `COc1ccccc1C1(O)CCN(CCCn2c3ccccc3c3ccccc32)CC1`, the figures for the half-maximal inhibitory concentration (IC50) in test [2], in test [4] and in test [7] were 6.2 µM, 11.4 µM and 8.92 µM, respectively.
For the molecule `NCCC(=O)O` [BETA-ALANINE], the IC50 in test [2] was greater than 100 µM.
As to `N[C@@]12CC[C@@H](C(=O)O)[C@@H]1C2`, the inhibition result in test [1], in test [3] and in test [6] was “inactive” in each case. For the same molecule, the inhibition in test [5] amounted to 63.9%.
